Results: ChEMBL document CHEMBL3856191, “Structural modifications at the 6-position of thieno[2,3-d]pyrimidines and their effects on potency at FLT3 for treatment of acute myeloid leukemia” (Eur J Med Chem, 2016)

How the values were obtained:
[1] = molecular target: cAMP-dependent protein kinase catalytic subunit alpha (Homo sapiens) (UniProt P17612); experiment: Inhibition of human recombinant PRKACA expressed in Escherichia coli assessed as remaining activity at 10 uM preincubated for 15 mins followed by PKA substrate peptide addition measured after 30 mins in presence of [gamma-32P]ATP by […] assay
[2] = molecular target: Proto-oncogene tyrosine-protein kinase receptor Ret (Homo sapiens) (UniProt P07949); experiment: Inhibition of recombinant human RET expressed in insect Sf21 cells assessed as remaining activity at 10 uM preincubated for 15 mins followed by poly(Glu:Tyr) substrate addition for 30 mins in presence of [gamma-32P]ATP by […] assay
[3] = molecular target: Receptor-type tyrosine-protein kinase FLT3 (Homo sapiens, UniProt P36888, D835Y)
Description: Inhibition of human FLT3 D835Y mutant preincubated for 15 mins followed by poly(Glu:Tyr) substrate addition for 30 mins in presence of [gamma-32P]ATP by TR-FRET assay

[4] = molecular target: Non-receptor tyrosine-protein kinase TYK2 (Homo sapiens) (UniProt P29597); experiment: Inhibition of human TYK2 assessed as remaining activity at 10 uM in presence of [gamma-32P]ATP by […] assay
[5] = molecular target: Mitogen-activated protein kinase 13 (Homo sapiens) (UniProt O15264); experiment: Inhibition of human SAPK4 assessed as remaining activity at 10 uM in presence of [gamma-32P]ATP by […] assay
[6] = molecular target: Angiopoietin-1 receptor (Homo sapiens, UniProt Q02763); experiment: Inhibition of human TIE2 assessed as remaining activity at 10 uM preincubated for 15 mins followed by substrate addition measured after 30 mins in presence of [gamma-32P]ATP by […] assay
[7] = Metabolic stability in rat liver microsomes assessed as compound remaining at 1 uM after 30 mins in presence of NADPH by HPLC-MS analysis; type: ADME; conditions: liver microsomes, read-out: Stability
[8] = molecular target: Fibroblast growth factor receptor 3 (Homo sapiens) (UniProt P22607); experiment: Inhibition of recombinant human FGFR3 expressed in insect Sf21 cells assessed as remaining activity at 10 uM preincubated for 15 mins followed by poly(Glu:Tyr) substrate addition for 30 mins in presence of [gamma-32P]ATP by […] assay
[9] = molecular target: Mitogen-activated protein kinase 12 (Homo sapiens) (UniProt P53778); experiment: Inhibition of human SAPK3 assessed as remaining activity at 10 uM in presence of [gamma-32P]ATP by […] assay
Sequence of Mitogen-activated protein kinase 12 (Homo sapiens) (P53778 whole entry): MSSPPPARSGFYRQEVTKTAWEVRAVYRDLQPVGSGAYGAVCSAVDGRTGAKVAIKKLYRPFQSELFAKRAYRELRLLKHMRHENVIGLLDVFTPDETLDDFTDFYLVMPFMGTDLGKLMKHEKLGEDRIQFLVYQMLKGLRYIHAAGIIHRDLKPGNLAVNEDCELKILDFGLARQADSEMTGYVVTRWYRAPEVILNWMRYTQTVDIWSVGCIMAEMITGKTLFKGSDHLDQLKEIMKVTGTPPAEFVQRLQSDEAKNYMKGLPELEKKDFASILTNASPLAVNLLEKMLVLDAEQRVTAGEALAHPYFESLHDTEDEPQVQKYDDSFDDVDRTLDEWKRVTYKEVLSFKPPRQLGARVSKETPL

Sequence of Angiopoietin-1 receptor (Q02763 whole entry): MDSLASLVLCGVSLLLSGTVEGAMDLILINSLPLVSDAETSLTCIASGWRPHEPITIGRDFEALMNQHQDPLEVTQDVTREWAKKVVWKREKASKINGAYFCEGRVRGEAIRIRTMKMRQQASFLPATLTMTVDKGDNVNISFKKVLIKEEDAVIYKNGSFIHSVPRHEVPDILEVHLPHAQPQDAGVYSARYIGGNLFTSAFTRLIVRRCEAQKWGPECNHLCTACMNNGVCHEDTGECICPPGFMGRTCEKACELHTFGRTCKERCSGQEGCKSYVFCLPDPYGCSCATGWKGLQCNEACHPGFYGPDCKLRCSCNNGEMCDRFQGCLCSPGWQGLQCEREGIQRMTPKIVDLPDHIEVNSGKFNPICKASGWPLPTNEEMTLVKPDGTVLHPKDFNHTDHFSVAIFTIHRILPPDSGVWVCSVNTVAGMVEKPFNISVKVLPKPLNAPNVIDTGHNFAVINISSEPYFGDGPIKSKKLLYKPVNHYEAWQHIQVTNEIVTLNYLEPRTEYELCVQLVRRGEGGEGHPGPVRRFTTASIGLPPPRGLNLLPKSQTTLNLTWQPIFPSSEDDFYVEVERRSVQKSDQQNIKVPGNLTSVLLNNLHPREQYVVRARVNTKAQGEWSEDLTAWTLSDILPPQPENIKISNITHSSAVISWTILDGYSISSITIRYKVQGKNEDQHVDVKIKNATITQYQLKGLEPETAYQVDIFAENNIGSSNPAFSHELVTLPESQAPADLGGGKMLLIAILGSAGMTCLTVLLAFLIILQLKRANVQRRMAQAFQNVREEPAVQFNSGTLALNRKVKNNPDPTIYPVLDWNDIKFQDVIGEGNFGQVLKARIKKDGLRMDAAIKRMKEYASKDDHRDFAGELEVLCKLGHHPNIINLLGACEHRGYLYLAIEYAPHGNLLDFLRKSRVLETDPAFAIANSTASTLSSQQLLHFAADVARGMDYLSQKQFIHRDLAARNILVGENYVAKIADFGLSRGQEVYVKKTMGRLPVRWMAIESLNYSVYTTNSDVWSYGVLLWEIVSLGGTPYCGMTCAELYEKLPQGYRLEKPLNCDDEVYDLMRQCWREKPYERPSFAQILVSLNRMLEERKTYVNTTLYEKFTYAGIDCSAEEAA
Sequence of Mitogen-activated protein kinase 13 (Homo sapiens) (O15264 whole entry): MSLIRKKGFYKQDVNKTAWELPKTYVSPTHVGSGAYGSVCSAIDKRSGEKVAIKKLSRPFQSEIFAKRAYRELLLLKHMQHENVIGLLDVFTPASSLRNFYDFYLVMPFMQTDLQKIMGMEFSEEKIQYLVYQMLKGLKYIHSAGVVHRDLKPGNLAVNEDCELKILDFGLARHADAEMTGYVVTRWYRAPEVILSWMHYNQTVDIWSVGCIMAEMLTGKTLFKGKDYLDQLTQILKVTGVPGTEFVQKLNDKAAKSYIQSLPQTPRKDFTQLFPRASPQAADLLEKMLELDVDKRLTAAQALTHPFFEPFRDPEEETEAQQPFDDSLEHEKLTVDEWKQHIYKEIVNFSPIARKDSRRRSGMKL
Sequence of Non-receptor tyrosine-protein kinase TYK2 (Homo sapiens) (P29597 whole entry): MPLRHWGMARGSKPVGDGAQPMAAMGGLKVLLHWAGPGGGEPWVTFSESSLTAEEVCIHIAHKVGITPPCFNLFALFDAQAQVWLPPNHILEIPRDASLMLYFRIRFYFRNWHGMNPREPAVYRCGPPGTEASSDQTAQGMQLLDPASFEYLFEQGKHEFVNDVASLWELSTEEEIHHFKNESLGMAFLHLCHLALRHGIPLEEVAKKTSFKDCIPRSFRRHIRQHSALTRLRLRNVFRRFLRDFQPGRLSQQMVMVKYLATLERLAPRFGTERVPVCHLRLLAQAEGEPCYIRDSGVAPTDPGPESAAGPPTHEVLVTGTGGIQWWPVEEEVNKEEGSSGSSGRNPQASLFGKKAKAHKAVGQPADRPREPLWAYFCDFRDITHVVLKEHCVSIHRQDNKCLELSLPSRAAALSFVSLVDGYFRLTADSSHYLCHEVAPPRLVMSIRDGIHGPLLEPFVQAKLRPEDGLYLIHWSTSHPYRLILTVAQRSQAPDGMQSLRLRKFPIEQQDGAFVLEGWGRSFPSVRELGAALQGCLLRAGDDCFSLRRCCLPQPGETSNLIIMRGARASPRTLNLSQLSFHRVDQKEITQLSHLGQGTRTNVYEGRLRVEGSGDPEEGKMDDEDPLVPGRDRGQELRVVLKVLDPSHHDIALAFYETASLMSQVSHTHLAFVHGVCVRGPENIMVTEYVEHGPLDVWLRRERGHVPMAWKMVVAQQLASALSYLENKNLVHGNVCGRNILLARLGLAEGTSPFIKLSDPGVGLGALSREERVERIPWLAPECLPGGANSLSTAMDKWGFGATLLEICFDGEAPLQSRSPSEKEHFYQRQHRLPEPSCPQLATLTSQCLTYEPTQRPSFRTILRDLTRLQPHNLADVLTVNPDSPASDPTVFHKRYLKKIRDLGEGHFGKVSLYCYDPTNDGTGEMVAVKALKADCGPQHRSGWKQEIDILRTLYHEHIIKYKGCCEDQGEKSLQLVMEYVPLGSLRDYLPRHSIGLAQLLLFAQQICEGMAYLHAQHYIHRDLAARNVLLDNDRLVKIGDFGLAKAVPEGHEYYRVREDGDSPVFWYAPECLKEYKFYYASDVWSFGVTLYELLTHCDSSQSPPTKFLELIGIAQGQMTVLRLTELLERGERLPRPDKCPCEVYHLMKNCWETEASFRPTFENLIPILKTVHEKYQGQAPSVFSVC
Sequence of Fibroblast growth factor receptor 3 (Homo sapiens) (P22607 23-806 limits assumed): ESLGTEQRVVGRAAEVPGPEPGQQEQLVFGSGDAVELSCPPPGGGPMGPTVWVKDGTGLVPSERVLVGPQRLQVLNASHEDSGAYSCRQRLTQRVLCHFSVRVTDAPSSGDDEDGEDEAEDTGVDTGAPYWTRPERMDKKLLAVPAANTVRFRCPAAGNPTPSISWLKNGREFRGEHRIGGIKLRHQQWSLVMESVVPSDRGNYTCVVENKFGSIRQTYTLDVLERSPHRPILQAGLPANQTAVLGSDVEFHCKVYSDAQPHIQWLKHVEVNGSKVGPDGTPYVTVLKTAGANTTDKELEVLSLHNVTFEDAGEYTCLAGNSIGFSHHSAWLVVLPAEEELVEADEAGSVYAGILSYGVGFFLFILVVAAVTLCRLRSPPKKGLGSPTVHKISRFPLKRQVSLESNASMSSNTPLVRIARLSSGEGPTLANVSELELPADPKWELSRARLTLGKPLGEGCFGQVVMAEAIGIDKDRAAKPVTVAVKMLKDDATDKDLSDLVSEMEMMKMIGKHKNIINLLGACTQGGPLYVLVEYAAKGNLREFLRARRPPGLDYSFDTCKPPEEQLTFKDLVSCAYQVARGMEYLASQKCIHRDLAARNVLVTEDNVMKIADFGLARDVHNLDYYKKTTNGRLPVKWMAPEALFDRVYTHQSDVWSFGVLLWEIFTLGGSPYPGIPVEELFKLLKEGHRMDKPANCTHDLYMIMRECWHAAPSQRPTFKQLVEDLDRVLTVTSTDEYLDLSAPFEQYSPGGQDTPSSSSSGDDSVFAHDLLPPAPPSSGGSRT
Sequence of Proto-oncogene tyrosine-protein kinase receptor Ret (Homo sapiens) (P07949 whole entry): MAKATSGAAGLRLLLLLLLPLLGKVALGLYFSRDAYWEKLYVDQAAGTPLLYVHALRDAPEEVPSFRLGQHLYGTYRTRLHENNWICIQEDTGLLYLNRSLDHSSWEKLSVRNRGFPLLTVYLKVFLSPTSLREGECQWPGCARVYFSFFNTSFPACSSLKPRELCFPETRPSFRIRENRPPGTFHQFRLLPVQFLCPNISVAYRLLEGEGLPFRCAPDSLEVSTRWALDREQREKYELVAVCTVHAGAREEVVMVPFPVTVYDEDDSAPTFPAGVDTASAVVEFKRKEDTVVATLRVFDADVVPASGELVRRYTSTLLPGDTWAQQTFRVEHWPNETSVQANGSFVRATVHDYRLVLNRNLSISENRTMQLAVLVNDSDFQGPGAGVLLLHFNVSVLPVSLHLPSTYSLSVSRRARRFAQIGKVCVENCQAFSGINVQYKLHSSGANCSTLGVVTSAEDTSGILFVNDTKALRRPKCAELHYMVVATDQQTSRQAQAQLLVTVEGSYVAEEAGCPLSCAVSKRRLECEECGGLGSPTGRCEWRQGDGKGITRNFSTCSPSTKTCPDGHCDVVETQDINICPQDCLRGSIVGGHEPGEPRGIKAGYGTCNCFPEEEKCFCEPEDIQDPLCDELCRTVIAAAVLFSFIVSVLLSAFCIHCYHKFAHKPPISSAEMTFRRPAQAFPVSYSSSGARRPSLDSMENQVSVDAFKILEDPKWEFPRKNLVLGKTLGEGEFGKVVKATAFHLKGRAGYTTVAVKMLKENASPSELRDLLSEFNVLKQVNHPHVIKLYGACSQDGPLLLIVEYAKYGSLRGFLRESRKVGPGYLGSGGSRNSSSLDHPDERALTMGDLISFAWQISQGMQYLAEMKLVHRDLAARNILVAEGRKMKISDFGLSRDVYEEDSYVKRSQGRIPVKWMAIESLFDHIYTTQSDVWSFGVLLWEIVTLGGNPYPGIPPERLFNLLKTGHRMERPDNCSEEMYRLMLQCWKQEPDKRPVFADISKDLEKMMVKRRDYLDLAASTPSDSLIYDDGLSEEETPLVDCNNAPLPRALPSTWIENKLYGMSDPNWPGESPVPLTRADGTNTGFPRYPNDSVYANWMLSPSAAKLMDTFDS

## CNCCOc1ccc(-c2sc3nc(-c4cccs4)nc(NN4C(=O)C=C(C)C4=O)c3c2C)cc1.Cl
[1]
  Activity: 112%
[2]
  Activity: 42%
[3]
  IC50: 10.2 nM
[4]
  Activity: 67%
[5]
  Activity: 93%
[6]
  Activity: 16%
[7]
  remaining at 0.5 h, 1 µM: 67.1%
[8]
  Activity: 72%
[9]
  Activity: 99%
